Laboratory results from patent publication US8318980B2, “UV absorbing compounds” (Fujifilm Manufacturing Europe B.V., priority 2007, dated 2012).
“Also recorded” adds a separate entry of the source.

What was measured:
human skin = test: Skin penetration test in diffusion cell; format: in vitro ADME; settings: human skin, diffusion cell; for penetration through the skin (UV-analysis of collected receptor fluids), in words: 20 hrs
Method: The skin-penetration was evaluated based on the same method described on page 21 of WO2006/009451. FIG. 2 is a drawing of the skin penetration test equipment, wherein (1) indicates the position of the test sample (donor compound), (2) an ⅛″ OD× 1/32″ wall tubing, (3) the receptor input, (4) the receptor compartment and (5) the compound and receptor output that is subjected to analysis.
A compound 3 donor solution was prepared by dissolving 30 mg of compound 3 in 4 ml EtOH and 7 ml phosphate buffer (PBS) at pH 7.4. Compound 4, 6, 7, 8 and 9 donor solutions were prepared by dispersing 80 mg of these compounds in olive oil.
For each compound 4 pieces of human skin (Ø ca 3 cm, mostly epidermis) were applied on a dialysis membrane and mounted into the diffusion cell shown in the FIG. 2. The figure is a schematic drawing of the diffusion cell, wherein is indicated 1: donor compound, 2: receptor compartment, 3: receptor input, 4: compound and receptor output for analysis, 5: ⅛″ OD× 1/32″ wall tubing. The cells were mounted on a temperature controlling and stirring device. The temperature was kept at 37°. The receptor fluid was a PBS buffer. The receptor compartment was stirred magnetically. 400 μl of the donor solution was applied. The receptor fluid flowing at a speed of 1 ml/hr was collected into glass tubes (1 tube/2 hrs). After 20 hrs the penetration experiment was terminated.
Furthermore the skin parts were extracted with DMSO to dissolve any UV-absorber in the epidermis. The extracts were analysed by UV.

[1] = Heat stability test (UV-absorption left after storage at 50° C.); format: physicochemical; settings: for Heat stability: UV-absorption left after 5 days: 5 days at 50° C. in the dark; for Heat stability: UV-absorption left after 5 days / Heat stability: UV-absorption left after 50 days / Heat stability: UV-absorption left after 100 days: 1.5% in C12-C15 alkyl benzoate oil (compound 12: 5% in water), 375 nm versus sample stored at room temperature; for Heat stability: UV-absorption left after 50 days: 50 days at 50° C. in the dark; for Heat stability: UV-absorption left after 100 days: 100 days at 50° C. in the dark; for heat stability, in words: in C12-C15 alkylbenzoate oils
Method: Hereto, 1.5% solutions were prepared of compounds 4-11 and 13 in C12-C15 alkyl benzoate oil. […] The solutions were stored in closed vessels at 50° C. in the dark. After 5, 50 and 100 days, the UV-absorption of a diluted sample was measured at 375 nm comparative to a corresponding sample stored at room temperature. The UV-absorption left after each time span is shown in Table 4 indicated by + and − signs. ++ means >95% left, +− implies between 50-95% left, − indicates <50% left.

[2] = Spectral analysis: UV extinction value E at 375 nm; format: physicochemical; settings: 1% solution in DMSO at 375 nm
Source text: The aminobutadiene compounds according to the present invention have a typical extinction value E of about 1100 to about 1500 AU/cm of a 1% solution in dimethylsulfoxide (DMSO, Sigma Aldrich ACS spectrophotometric grade) at 375 nm, which is typically the wavelength of the absorption maximum of such compounds. The exact value of E depends on the relative contribution of the core and the R-groups to the molecular weight, while the exact wavelength of the absorption maximum depends on the type of substituents. Spectra were obtained on a HP 8452A diode array spectrophotometer against a DMSO blanc.

[3] = Solubility test in C12-C15 alkyl benzoate oil (Finsolv TN); format: physicochemical; design: key to Solubility in Finsolv TN, dissolved amount (m/m %) 1% / Solubility in Finsolv TN, dissolved amount (m/m %) 5% / Solubility in Finsolv TN, dissolved amount (m/m %) 20% / Solubility in Finsolv TN, dissolved amount (m/m %) 50% / Solubility in Finsolv TN, dissolved amount (m/m %) 80% / Solubility in Finsolv TN, dissolved amount (m/m %) 90%: +=well-soluble; −=not soluble
Method: The aminobutadiene compounds according to the present invention have an optimised solubility for cosmetic oils. […] In Table 3, the solubility of compounds 4, 12 and 13 is shown at various concentrations (+=well-soluble; -=not soluble). The compounds were dissolved at 80° C. while stirring for 1 hour and cooled down to room temperature. After 24 hours the solutions were inspected for any precipitates or crystals.

Row | Compound | penetration into or through the skin (UV analysis of DMSO skin extracts), in words (human skin) | penetration through the skin (UV-analysis of collected receptor fluids), in words (human skin) | Heat stability: UV-absorption left after 5 days [1] | Heat stability: UV-absorption left after 50 days [1] | Heat stability: UV-absorption left after 100 days [1] | heat stability, in words [1] | extinction E [2] | Solubility in Finsolv TN, dissolved amount (m/m %) 1% ([3]; 1% m/m, dissolved at 80° C. for 1 hour, cooled to room temperature, inspected after 24 hours) | Solubility in Finsolv TN, dissolved amount (m/m %) 5% ([3]; 5% m/m, dissolved at 80° C. for 1 hour, cooled to room temperature, inspected after 24 hours) | Solubility in Finsolv TN, dissolved amount (m/m %) 20% ([3]; 20% m/m, dissolved at 80° C. for 1 hour, cooled to room temperature, inspected after 24 hours) | Solubility in Finsolv TN, dissolved amount (m/m %) 50% ([3]; 50% m/m, dissolved at 80° C. for 1 hour, cooled to room temperature, inspected after 24 hours) | Solubility in Finsolv TN, dissolved amount (m/m %) 80% ([3]; 80% m/m, dissolved at 80° C. for 1 hour, cooled to room temperature, inspected after 24 hours) | Solubility in Finsolv TN, dissolved amount (m/m %) 90% ([3]; 90% m/m, dissolved at 80° C. for 1 hour, cooled to room temperature, inspected after 24 hours) | solubility in C12-C15 alkyl benzoate oil (Finsolv TN), in words ([3]; all concentrations)
1 | CCCCCCCCOC(=O)C(=CC=CN(CCCCCCN(C=CC=C(C(=O)OCCCCCCCC)S(=O)(=O)c1ccccc1)Cc1ccccc1)CCCCCCN(C=CC=C(C(=O)OCCCCCCCC)S(=O)(=O)c1ccccc1)Cc1ccccc1)S(=O)(=O)c1ccccc1 [Compound 4] | do not penetrate into or through the skin | no penetration | ++ (++ means >95% left) | ++ (++ means >95% left) | ++ (++ means >95% left) | very heat stable | 1400 au/cm | + | + | + | + | + | + | very well soluble at all concentrations
2 | CCCCCCCCOC(=O)C(=CC=CN(CCN(C=CC=C(C(=O)OCCCCCCCC)S(=O)(=O)c1ccccc1)Cc1ccccc1)CCN(C=CC=C(C(=O)OCCCCCCCC)S(=O)(=O)c1ccccc1)Cc1ccccc1)S(=O)(=O)c1ccccc1 [Compound 9] | do not penetrate into or through the skin | no penetration | ++ (++ means >95% left) | ++ (++ means >95% left) | ++ (++ means >95% left) | very heat stable; also recorded: good heat stability |  |  |  |  |  |  |  | 
